Key:
MKNK2 = MKNK2 (Homo sapiens, UniProt Q9HBH9); assay: Kinase selectivity screen MKNK2; assay type: biochemical; conditions: 1 μM compound
IGF1R = IGF1R (Homo sapiens, UniProt P08069); assay: Kinase selectivity screen IGF1R; conditions: read-out: % inhibition of IGF1R
TBK1 = molecular target: T1, TBK1 (Homo sapiens, UniProt Q9UHD2); assay: Kinase selectivity screen TBK1; conditions: read-out: % inhibition of TBK1
T1 sequence (Q9UHD2 1-729): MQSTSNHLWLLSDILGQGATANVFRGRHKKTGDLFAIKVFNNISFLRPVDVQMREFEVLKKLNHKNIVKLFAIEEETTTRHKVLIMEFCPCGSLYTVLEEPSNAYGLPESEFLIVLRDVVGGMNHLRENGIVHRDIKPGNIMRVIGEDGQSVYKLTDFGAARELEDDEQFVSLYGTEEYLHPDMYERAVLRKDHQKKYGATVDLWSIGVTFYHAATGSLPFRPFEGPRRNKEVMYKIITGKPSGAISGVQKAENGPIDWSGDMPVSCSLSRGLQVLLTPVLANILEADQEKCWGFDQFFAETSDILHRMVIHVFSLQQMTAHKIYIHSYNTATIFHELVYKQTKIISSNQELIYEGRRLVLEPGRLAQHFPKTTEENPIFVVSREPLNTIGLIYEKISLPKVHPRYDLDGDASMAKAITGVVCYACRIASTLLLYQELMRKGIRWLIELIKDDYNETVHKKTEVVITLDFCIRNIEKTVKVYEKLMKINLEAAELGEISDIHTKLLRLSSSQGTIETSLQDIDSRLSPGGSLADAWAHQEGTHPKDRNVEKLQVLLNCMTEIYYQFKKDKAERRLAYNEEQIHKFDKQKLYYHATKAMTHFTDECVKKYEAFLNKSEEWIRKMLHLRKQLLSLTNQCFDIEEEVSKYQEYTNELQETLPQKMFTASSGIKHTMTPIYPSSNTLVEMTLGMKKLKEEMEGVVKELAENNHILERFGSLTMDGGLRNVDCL

PIP5K1C = PIP5K1C (Homo sapiens, UniProt O60331); assay: Kinase selectivity screen PIP5K1C; conditions: read-out: % inhibition of PIP5K1C
STK11 = molecular target: T2, STK11 (Homo sapiens, UniProt Q15831); assay: Kinase selectivity screen STK11; conditions: read-out: % inhibition of STK11
T2 sequence (Q15831 1-433): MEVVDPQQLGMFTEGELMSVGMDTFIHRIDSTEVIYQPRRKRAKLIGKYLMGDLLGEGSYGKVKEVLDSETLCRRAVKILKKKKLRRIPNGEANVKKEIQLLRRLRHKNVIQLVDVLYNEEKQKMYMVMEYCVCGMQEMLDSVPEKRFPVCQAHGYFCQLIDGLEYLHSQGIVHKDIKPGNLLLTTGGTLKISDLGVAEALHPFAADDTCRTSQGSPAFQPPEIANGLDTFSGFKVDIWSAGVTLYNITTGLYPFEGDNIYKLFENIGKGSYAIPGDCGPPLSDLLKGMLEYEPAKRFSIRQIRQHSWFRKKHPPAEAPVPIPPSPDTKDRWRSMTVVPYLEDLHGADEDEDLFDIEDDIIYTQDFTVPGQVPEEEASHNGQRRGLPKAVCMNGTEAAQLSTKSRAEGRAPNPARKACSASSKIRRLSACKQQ
T2 sequence (Q7RTN6 1-431 partner): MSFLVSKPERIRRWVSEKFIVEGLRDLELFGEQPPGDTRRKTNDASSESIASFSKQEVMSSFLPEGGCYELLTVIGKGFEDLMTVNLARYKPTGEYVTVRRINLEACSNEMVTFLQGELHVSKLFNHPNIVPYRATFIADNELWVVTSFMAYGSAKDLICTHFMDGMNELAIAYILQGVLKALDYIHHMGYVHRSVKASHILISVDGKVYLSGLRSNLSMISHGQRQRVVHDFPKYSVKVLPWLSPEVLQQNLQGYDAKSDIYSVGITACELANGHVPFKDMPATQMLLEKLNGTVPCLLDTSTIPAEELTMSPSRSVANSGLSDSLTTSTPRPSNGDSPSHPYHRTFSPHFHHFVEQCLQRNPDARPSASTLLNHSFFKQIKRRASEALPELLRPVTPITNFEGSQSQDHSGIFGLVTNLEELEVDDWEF
T2 sequence (Q9Y376 1-341 partner): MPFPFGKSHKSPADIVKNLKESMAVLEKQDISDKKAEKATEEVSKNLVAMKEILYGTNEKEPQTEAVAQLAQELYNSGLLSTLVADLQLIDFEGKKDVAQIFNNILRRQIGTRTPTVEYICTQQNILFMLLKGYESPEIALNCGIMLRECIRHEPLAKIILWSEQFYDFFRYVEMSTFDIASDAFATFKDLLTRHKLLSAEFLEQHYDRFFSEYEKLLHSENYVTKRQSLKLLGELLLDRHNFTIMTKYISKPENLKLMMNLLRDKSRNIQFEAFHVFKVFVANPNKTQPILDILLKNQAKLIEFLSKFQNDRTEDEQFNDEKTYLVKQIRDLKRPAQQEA

INSR = INSR (Homo sapiens, UniProt P06213); assay: Kinase selectivity screen INSR; conditions: read-out: % inhibition of INSR
PAK4 = PAK4 (Homo sapiens, UniProt O96013); assay: Kinase selectivity screen PAK4; conditions: read-out: % inhibition of PAK4
FGFR1 = FGFR1 (Homo sapiens, UniProt P11362); assay: Kinase selectivity screen FGFR1; conditions: read-out: % inhibition of FGFR1
Chain of FGFR1 (P11362 22-822, species assumed): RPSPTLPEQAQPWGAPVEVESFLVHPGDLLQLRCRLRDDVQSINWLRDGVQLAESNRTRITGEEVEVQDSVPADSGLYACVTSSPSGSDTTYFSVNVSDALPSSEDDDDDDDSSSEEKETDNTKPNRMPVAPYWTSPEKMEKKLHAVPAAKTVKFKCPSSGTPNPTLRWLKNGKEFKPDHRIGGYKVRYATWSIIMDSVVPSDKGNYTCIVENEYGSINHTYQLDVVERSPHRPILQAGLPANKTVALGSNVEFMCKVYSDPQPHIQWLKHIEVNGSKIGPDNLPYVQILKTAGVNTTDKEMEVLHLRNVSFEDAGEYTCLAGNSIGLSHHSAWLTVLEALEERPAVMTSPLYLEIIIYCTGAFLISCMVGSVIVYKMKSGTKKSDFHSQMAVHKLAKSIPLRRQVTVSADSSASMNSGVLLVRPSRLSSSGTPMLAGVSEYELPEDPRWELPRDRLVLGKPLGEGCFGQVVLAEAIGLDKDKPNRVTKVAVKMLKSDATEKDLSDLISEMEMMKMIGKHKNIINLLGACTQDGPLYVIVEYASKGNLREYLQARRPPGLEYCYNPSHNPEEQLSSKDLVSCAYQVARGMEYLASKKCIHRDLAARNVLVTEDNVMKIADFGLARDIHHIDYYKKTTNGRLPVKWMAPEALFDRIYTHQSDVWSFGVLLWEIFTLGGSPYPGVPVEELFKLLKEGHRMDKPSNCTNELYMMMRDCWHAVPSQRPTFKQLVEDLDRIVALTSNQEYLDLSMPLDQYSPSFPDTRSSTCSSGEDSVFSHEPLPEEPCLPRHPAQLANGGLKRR

Chain of IGF1R (P08069 31-1367): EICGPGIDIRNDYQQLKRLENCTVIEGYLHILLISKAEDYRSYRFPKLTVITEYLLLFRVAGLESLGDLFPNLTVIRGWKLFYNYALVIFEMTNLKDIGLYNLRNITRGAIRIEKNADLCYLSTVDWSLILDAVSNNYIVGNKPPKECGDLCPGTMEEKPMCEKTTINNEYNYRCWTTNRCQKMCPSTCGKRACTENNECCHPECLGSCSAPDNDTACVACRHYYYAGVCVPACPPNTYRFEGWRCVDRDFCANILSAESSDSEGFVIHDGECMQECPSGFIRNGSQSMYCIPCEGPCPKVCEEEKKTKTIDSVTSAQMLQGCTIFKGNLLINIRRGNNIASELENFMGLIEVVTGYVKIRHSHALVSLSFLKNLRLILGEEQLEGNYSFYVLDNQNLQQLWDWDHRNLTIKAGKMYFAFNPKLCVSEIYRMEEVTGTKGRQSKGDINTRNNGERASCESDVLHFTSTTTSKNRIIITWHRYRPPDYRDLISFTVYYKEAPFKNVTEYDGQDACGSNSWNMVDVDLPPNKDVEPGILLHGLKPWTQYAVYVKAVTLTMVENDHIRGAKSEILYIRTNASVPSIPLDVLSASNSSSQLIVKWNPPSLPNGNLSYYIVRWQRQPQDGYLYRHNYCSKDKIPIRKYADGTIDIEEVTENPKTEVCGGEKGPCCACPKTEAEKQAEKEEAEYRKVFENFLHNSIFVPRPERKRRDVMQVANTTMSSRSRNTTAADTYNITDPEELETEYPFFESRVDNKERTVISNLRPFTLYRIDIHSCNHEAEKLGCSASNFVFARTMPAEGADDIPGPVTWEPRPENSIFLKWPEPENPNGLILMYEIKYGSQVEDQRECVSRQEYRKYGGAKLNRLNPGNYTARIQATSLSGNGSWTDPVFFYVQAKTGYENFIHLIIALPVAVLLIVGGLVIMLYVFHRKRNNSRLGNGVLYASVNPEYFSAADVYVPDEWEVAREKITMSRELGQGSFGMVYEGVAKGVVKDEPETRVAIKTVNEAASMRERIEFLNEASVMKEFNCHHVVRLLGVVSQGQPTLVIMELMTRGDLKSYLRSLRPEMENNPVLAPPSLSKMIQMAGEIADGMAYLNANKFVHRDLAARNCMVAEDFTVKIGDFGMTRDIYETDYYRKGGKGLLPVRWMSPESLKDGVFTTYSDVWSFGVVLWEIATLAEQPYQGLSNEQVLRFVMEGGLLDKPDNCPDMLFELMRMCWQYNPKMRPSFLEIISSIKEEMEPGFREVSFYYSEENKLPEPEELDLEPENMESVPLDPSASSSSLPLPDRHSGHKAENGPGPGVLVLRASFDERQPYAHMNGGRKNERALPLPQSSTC
Chain of PIP5K1C (O60331 whole entry, species assumed): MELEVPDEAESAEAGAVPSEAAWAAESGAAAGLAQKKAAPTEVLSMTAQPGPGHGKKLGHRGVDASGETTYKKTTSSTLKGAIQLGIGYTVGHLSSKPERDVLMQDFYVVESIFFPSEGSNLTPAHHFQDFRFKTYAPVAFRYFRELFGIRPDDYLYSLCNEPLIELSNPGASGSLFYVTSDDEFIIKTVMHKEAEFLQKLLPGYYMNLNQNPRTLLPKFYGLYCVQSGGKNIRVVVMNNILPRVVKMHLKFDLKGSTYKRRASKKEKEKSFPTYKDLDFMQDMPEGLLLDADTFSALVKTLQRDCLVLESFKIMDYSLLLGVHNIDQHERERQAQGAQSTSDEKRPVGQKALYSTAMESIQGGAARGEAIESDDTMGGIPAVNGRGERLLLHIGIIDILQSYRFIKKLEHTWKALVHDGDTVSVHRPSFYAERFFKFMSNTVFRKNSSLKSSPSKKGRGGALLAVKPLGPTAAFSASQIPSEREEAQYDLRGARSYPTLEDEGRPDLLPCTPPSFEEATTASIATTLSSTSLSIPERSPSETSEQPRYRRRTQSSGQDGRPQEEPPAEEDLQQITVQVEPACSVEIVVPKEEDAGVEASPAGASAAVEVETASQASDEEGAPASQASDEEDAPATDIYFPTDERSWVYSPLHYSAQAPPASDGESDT
Chain of PAK4 (O96013 whole entry, species assumed): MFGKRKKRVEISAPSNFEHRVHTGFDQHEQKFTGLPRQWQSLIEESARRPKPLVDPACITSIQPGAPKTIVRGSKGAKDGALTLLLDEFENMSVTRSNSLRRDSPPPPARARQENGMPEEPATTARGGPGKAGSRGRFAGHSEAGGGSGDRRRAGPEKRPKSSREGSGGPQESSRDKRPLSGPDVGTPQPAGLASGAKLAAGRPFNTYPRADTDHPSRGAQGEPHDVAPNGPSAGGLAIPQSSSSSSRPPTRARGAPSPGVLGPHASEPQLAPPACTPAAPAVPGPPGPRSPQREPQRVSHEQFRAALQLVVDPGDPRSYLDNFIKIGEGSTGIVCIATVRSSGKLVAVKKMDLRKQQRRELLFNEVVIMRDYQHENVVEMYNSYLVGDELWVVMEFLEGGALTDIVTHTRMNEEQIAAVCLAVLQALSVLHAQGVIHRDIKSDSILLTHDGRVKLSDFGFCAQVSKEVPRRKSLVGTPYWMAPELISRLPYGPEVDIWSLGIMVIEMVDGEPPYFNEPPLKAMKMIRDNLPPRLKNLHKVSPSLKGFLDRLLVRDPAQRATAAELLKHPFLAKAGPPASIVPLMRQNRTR
Chain of MKNK2 (Q9HBH9 whole entry): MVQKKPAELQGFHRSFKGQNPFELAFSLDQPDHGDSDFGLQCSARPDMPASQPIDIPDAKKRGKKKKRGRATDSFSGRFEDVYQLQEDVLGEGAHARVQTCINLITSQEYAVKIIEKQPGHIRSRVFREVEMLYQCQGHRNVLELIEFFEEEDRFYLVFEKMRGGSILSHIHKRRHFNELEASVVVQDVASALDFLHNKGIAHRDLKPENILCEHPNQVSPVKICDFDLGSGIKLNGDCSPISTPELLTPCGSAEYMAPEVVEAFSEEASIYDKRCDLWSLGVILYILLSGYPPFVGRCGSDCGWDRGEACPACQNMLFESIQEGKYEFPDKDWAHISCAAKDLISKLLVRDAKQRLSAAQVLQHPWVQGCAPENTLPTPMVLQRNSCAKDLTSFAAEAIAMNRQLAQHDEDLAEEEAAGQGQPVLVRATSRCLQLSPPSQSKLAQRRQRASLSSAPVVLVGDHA

Row | Compound | inhibition at 1 µM (MKNK2) [%] | inhibition at 1 µM (IGF1R) [%] | inhibition at 1 µM (TBK1) [%] | inhibition at 1 µM (PIP5K1C) [%] | inhibition at 1 µM (STK11) [%] | inhibition at 1 µM (INSR) [%] | inhibition at 1 µM (PAK4) [%] | inhibition at 1 µM (FGFR1) [%]
1 | O=C(NCC1CCNCC1)c1nc2c(N3CCc4cc(F)ccc43)ncnc2s1 [Example 58, 7-(5-fluoroindolin-1-yl)-N-(4-piperidylmethyl)thiazolo[5,4-d]pyrimidine-2-carboxamide] | 93 | 11 | 17 | 6 | 7 | 20 | 0 | 0
2 | CN(C)CCCNC(=O)c1nc2c(N3CCc4cc(F)ccc43)ncnc2s1 [Example 64, N-[3-(dimethylamino)propyl]-7-(5-fluoroindolin-1-yl)thiazolo[5,4-d]pyrimidine-2-carboxamide] | 96 | 0 | 7 | 3 | 10 | 0 | 4 | 2
3 | CC(C)Oc1cc(F)ccc1Nc1ncnc2sc(C(=O)NCC3CCNCC3)nc12 [Example 10, 7-(4-fluoro-2-isopropoxy-anilino)-N-(4-piperidylmethyl)thiazolo[5,4-d]pyrimidine-2-carboxamide] | 81 | 12 | 14 | 6 | 21 | 8 | 15 | 1
